Test system: tumor
Experiment: targeting hyperthermia and chemotherapy through tail vein injection with RF treatment (FIG. 8)
Type: in vivo, C3H/HeN mice
Settings: 5-FU injection alone, 770 nM, equivalent to total nanoparticle loaded drugs
Experimental: In addition, in an embodiment according to the present invention, targeting hyperthermia and chemotherapy through tail vein injection of the 5-FU-loaded Fe3O4@anti-HER2 nanoparticle (500 μg/mL) in a serial single daily dose for four consecutive days are evaluated. RF treatments are given 24 h after the nanoparticle had been injected. […] This indicates nanoparticle accumulation within tumor dissipate sufficient heat to generate hyperthermia effect.
Groups of male C3H/HeN mice 6-8 weeks old in this experiment were given a tail-vein injection of 200 μL 5-FU-loaded Fe3O4@anti-HER2 magnetic nanoparticle in PBS ([…]) or of PBS alone. One group of mice was sacrificed 24 h after the tail-vein injection. The rest of the mice were given 15 min RF treatment 24 h after the tail-vein injection. Twenty-four hours after the RF treatment, the mice were overdosed with the anesthetics ketamine and xylazine (8.7 mg/100 g and 1.3 mg/100 g), and their major organs (brain, heart, lungs, spleen, liver, kidneys) and blood were collected. Each organ was homogenized and dissolved in nitro-hydrochloric acid. The sample solutions were continuously shaken for two days to ensure Fe dissociation. All samples were filtered before analyzed using atomic absorption spectrometer (Solar M6 series; Unicam, UK). […]

O=c1[nH]cc(F)c(=O)[nH]1 [5-FU, 5-fluorouracil]
tumor growth: unable to suppress tumor growth

Source: patent publication US9351941B2, “Radiofrequency-induced synchronization of in situ hyperthermia and chemotherapy via magnetic-nanoconjugates” (National Cheng Kung University, priority 2012, dated 2016)
